In patent US8883750B2, “Method of treating diabetes” (Gilead Sciences, Inc., priority 2002, dated 2014):

Legend:
diabetic patients [1] = assay: Open-label long-term ranolazine treatment of MARISA/CARISA diabetic patients; assay type: in vivo, human
Protocol: Efficacy and tolerability of ranolazine were similar in both diabetic and non-diabetic patients in both MARISA and CARISA. In diabetic patients in CARISA (N=131), ranolazine 750 and 1000 mg bid were associated with a mean absolute reduction in HbA1c of 0.48 percentage points and 0.70 percentage points, respectively, compared to placebo at 12 weeks (each p<0.01). The reductions versus placebo were greater in those patients on insulin (N=31; 0.84 and 1.05 percentage points), on 750 and 1000 mg bid (p<0.02 and p<0.01), respectively. Fasting glucose was not affected by ranolazine in diabetic patients in CARISA, regardless of insulin treatment; one hypoglycemic episode was reported on placebo and one on ranolazine.

[2] = system: symptomatic chronic angina patients; assay: CARISA study: modified Bruce treadmill exercise tests and angina, ranolazine added to background anti-anginal therapy; assay type: in vivo, human; details: for Prolongation of exercise duration at trough drug concentrations: Example 10 formulation
Protocol: (§1) The CARISA (Combination Assessment of Ranolazine in Stable Angina) study randomized 823 symptomatic chronic angina patients on diltiazem, atenolol or amlodipine to ranolazine 750 mg bid, 1000 mg bid or placebo in a parallel, double-blind, 12 week study. Modified Bruce treadmill tests were performed at baseline, and after 2, 6, and 12 weeks of treatment at trough and peak plasma levels. The ranolazine formulation used in this study was that shown in Example 10.
(§2) Angina frequency and nitroglycerin consumption were reduced by ranolazine. The ranolazine formulation used in the CARISA and MARISA studies was that shown in Example 10. The most frequently reported adverse events (dizziness constipation and nausea) were generally mild and occurred in fewer than 10% of patients. The potential use of ranolazine in diabetics is of interest because approximately one in four angina patients has diabetes.

[3] = system: angina patients with diabetes; assay: CARISA study: hemoglobin A1c in angina patients with diabetes; assay type: in vivo, human; details: 12 weeks; for Average absolute reduction in HbA1c compared to placebo: all diabetic patients (N=131); for Absolute reduction in HbA1c compared to placebo: diabetic patients on insulin (N=31)
Protocol: HbA1c levels were assayed following a modification of the method of Phillipov (Components of total measurement error for hemoglobin A1c determination. Phillipov, G., et al. Clin. Chem. (2001), 47(10):1851). (see FIG. 1) The […] (Combination Assessment of Ranolazine in Stable Angina) study randomized 823 symptomatic chronic angina patients on diltiazem, atenolol or amlodipine to ranolazine 750 mg bid, 1000 mg bid or placebo in a parallel, double-blind, 12 week study. Modified Bruce treadmill tests were performed at baseline, and after 2, 6, and 12 weeks of treatment at trough and peak plasma levels. The ranolazine formulation used in this study was that shown in Example 10.

[4] = Solubility of ranolazine in aqueous solutions as a function of pH; assay type: physicochemical
diabetic patients [5] = assay: CARISA study: glucose, triglyceride and cholesterol values of diabetic patients; assay type: in vivo, human; details: for Glucose, change from baseline / Triglycerides, change from baseline: all diabetic patients, mean ± SEM; for Glucose, change from baseline: placebo change 1.2 ± 7.1; for Triglycerides, change from baseline: placebo change 26.3 ± 21.2
Protocol: as §1, with “CARISA” left out

chronic angina patients = assay: Adverse events in CARISA and MARISA; assay type: in vivo, human; details: for Patients with at least one adverse event: CARISA
Protocol: as §1, §2

[6] = system: patients with chronic angina; assay: MARISA study: treadmill exercise capacity, ranolazine alone; assay type: in vivo, human; details: N=191
Text: as §2

angina patients = assay: Angina clinical trials using ranolazine: blood parameters (summary in background); assay type: in vivo, human
Text: One compound disclosed therein, (±)-N-(2,6-dimethylphenyl)-4-[2-hydroxy-3-(2-methoxyphenoxy)-propyl]-1-piperazineacetamide (known as ranolazine) is undergoing clinical trials for the treatment of angina. […] Ranolazine was also found to reduce triglyceride levels in non-diabetic patients. Ranolazine was also found to lower glucose plasma levels and, over the long term, total cholesterol levels, while increasing HDL cholesterol levels. Thus, ranolazine provides a method of treating diabetes pre-diabetes, or the non-diabetes condition by reducing the levels of potentially toxic metabolites in blood and/or complications associated with diabetes. Ranolazine also can reduce the number of medications necessary for a patient with both cardiovascular problems and diabetes or pre-diabetes.

[7] = over 3 years of open-label treatment, combined MARISA/CARISA diabetic population
[8] = CARISA, diabetic and non-diabetic patients
[9] = first 12 weeks of treatment, diabetic patients in CARISA

Solubility in aqueous solutions (in words) ([4]; aqueous solutions having a pH above about 6.5): relatively insoluble | USP Solubility Class ([4]; solution pH 4.81): Freely Soluble | USP Solubility Class ([4]; solution pH 4.89): Soluble | USP Solubility Class ([4]; solution pH 4.90): Soluble | USP Solubility Class ([4]; solution pH 5.04): Soluble | USP Solubility Class ([4]; solution pH 5.35): Sparingly Soluble | USP Solubility Class ([4]; solution pH 5.82): Slightly soluble | USP Solubility Class ([4]; solution pH 6.46): Slightly soluble | USP Solubility Class ([4]; solution pH 6.73): Very slightly soluble | USP Solubility Class ([4]; solution pH 7.08): Very slightly soluble | USP Solubility Class ([4]; solution pH 7.59 (unbuffered water)): Very slightly soluble | USP Solubility Class ([4]; solution pH 7.79): Very slightly soluble | USP Solubility Class ([4]; solution pH 12.66): Very slightly soluble | Mean increase in LDL cholesterol (diabetic patients [5]; [9]): ≤ 11 mg/dL | Mean increase in total cholesterol (diabetic patients [5]; [9]): up to 16 mg/dL
Structure (SMILES): COc1ccccc1OCC(O)CN1CCN(CC(=O)Nc2c(C)cccc2C)CC1 (racemic) [ranolazine, N-(2,6-dimethylphenyl)-4-[2-hydroxy-3-(2-methoxyphenoxy)propyl]-1-piperazineacetamide]
Decrease of HbA1c from baseline (diabetic patients [1]; after 12-24 months of open-label treatment, diabetic patients): 1.1 percentage points | HDL cholesterol (diabetic patients [1]; [7]): continued to increase | LDL cholesterol (diabetic patients [1]; [7]): decreased from baseline | Total cholesterol (diabetic patients [1]; [7]): decreased from baseline | Prolongation of exercise duration at trough drug concentrations ([2]; 750 mg bid, angina patients with diabetes): 29 s | Prolongation of exercise duration at trough drug concentrations ([2]; 750 mg bid, non-diabetic angina patients): 22 s | Prolongation of exercise duration at trough drug concentrations ([2]; 1000 mg bid, angina patients with diabetes): 34 s | Prolongation of exercise duration at trough drug concentrations ([2]; 1000 mg bid, non-diabetic angina patients): 21 s | Angina frequency [2, 8]: decreased | Time to angina [2, 8]: increased | Angina frequency ([2]; MARISA and CARISA): reduced | Nitroglycerin consumption ([2]; MARISA and CARISA): reduced | Treadmill exercise capacity ([2]; added to atenolol, diltiazem, or amlodipine, CARISA, N=823): increased | Exercise duration (ED) at trough and peak (in words) ([2]; similarly in diabetic and non-diabetic patients): prolonged | Average absolute reduction in HbA1c compared to placebo ([3]; 750 mg bid, p<0.01): 0.48 percentage points | Absolute reduction in HbA1c compared to placebo ([3]; 750 mg bid, p<0.02): 0.84 percentage points | Absolute reduction in HbA1c compared to placebo ([3]; 750 mg bid, p<0.02, listed as Ranolazine): 0.8 percentage points | Average absolute reduction in HbA1c compared to placebo ([3]; 1000 mg bid, p<0.01): 0.70 percentage points | Absolute reduction in HbA1c compared to placebo ([3]; 1000 mg bid, p<0.01): 1.05 percentage points | Absolute reduction in HbA1c compared to placebo ([3]; 1000 mg bid, p<0.01, listed as Ranolazine): 1.1 percentage points | Glucose, change from baseline (diabetic patients [5]; 750 mg bid, baseline 168 ± 8.0): 8.0 ± 8.8 mg/dL | Triglycerides, change from baseline (diabetic patients [5]; 750 mg bid, baseline 192.0 ± 14.5): 21.2 ± 13.5 mg/dL | Glucose, change from baseline (diabetic patients [5]; 1000 mg bid, baseline 165.2 ± 7.8): 1.7 ± 7.2 mg/dL | Triglycerides, change from baseline (diabetic patients [5]; 1000 mg bid, baseline 196 ± 17.5): -7.3 ± 9.3 mg/dL | Fasting glucose (diabetic patients [5]; diabetic patients in CARISA, regardless of insulin treatment): not affected | HDL/LDL ratio (diabetic patients [5]; [9]): changed little | Mean increase in HDL cholesterol (diabetic patients [5]; [9]): up to 5 mg/dL | Patients with the most frequently reported adverse events (dizziness constipation and nausea) (chronic angina patients; CARISA and MARISA, generally mild): < 10% | Patients with at least one adverse event (chronic angina patients; diabetic patients, 750 mg bid (placebo 25%)): 25% | Patients with at least one adverse event (chronic angina patients; diabetic patients, 1000 mg bid (placebo 25%)): 34% | Patients with at least one adverse event (chronic angina patients; non-diabetic patients, 750 mg bid (placebo 27%)): 33% | Patients with at least one adverse event (chronic angina patients; non-diabetic patients, 1000 mg bid (placebo 27%)): 32% | Hypoglycemic episodes reported (chronic angina patients; diabetic patients in CARISA (one on placebo)): one | Treadmill exercise capacity [6]: increased | Glucose plasma levels (angina patients; angina clinical trials): lower | HDL cholesterol levels (angina patients; angina clinical trials): increasing | Hemoglobulin A1 (HbA1c) levels (angina patients; diabetic angina patients): reduced | Triglyceride levels (angina patients; diabetic angina patients, over the long term): reduced | Triglyceride levels (angina patients; non-diabetic patients): reduce | Total cholesterol levels (angina patients; over the long term): lower
